Like-named read-outs stand apart in the source and are kept apart here.
Tests used:
[1] = system: kochia; assay: Test A postemergence; type: in vivo, Bassia scoparia; conditions: Bassia scoparia, post-emergence, 240 h, postemergence, 10 days, 0 to 100 scale (0 no effect, 100 complete control); for pest or weed control at 125 g/ha: 125 g ai/ha; for pest or weed control at 500 g/ha: 500 g ai/ha
Procedure, shortened: (§1)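 Seeds in loam–sand blend received a directed preemergence soil spray of compound in non-phytotoxic solvent with surfactant; postemergence plants (2–10 cm, one- to two-leaf stage) were sprayed with the same formulation. After 10 days in greenhouse, injury was rated visually versus untreated controls, 0 (no effect) to 100 (complete control).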

[2] = system: soybean; assay: Test A postemergence; type: in vivo, Glycine max; conditions: Glycine max, post-emergence, 240 h, postemergence, 10 days, 0 to 100 scale (0 no effect, 100 complete control); for plant injury at 500 g/ha: 500 g ai/ha, visual injury, read-out: Plant response rating, Soybean
Procedure, shortened: as §1

[3] = system: pigweed, palmer; assay: Test A preemergence; type: in vivo, Amaranthus palmeri; conditions: Amaranthus palmeri, pre-emergence, 240 h, read-out: Plant response rating, Pigweed, Palmer; for pest or weed control at 125 g/ha: 125 g ai/ha; for pest or weed control at 500 g/ha: 500 g ai/ha
Procedure, shortened: as §1

[4] = system: horseweed; assay: Test A postemergence; type: in vivo, Erigeron canadensis; conditions: Erigeron canadensis, post-emergence, 240 h, postemergence, 10 days, 0 to 100 scale (0 no effect, 100 complete control); for pest or weed control at 125 g/ha: 125 g ai/ha; for pest or weed control at 500 g/ha: 500 g ai/ha
Procedure, shortened: as §1

[5] = system: ryegrass, Italian; assay: Test A preemergence; type: in vivo, Lolium multiflorum; conditions: Lolium multiflorum, pre-emergence, 240 h, read-out: Plant response rating, Ryegrass, Italian; for pest or weed control at 125 g/ha: 125 g ai/ha; for pest or weed control at 500 g/ha: 500 g ai/ha
Procedure, shortened: as §1

[6] = system: barnyardgrass; assay: Test B flooded paddy test; type: in vivo, Echinochloa crus-galli; conditions: Echinochloa crus-galli, 312 h, 250 g ai/ha, Flood, 13 days, 0 to 100 scale (0 no effect, 100 complete control); read-out: Plant response rating, Barnyardgrass
Procedure, shortened: (§2)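 Percent weed or crop control, judged by eye on a 0–100 scale 13 days post-treatment, reflects compound added to a 3 cm flood maintained over 2-leaf plants in the greenhouse. Missing entries are marked with a dash.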

[7] = system: corn; assay: Test A postemergence; type: in vivo, Zea mays; conditions: Zea mays, post-emergence, 240 h, postemergence, 10 days, 0 to 100 scale (0 no effect, 100 complete control); for Corn plant response rating (crop injury, 0 = no effect, 100 = complete kill) at 500 g/ha: 500 g ai/ha
Procedure, shortened: as §1

[8] = system: corn; assay: Test A preemergence; type: in vivo, Zea mays; conditions: Zea mays, pre-emergence, 240 h; for Corn plant response rating (crop injury, 0 = no effect, 100 = complete kill) at 125 g/ha: 125 g ai/ha; for Corn plant response rating (crop injury, 0 = no effect, 100 = complete kill) at 500 g/ha: 500 g ai/ha
Procedure, shortened: as §1

[9] = system: wheat; assay: Test A preemergence; type: in vivo, Triticum aestivum; conditions: Triticum aestivum, pre-emergence, 240 h, read-out: Plant response rating, Wheat; for plant injury at 125 g/ha: 125 g ai/ha; for plant injury at 500 g/ha: 500 g ai/ha
Procedure, shortened: as §1

[10] = system: ducksalad; assay: Test B flooded paddy test; type: in vivo, Heteranthera limosa; conditions: Heteranthera limosa, 312 h, 250 g ai/ha, Flood, 13 days, 0 to 100 scale (0 no effect, 100 complete control); read-out: Plant response rating, Ducksalad
Procedure, shortened: as §2

[11] = system: kochia; assay: Test A preemergence; type: in vivo, Bassia scoparia; conditions: Bassia scoparia, pre-emergence, 240 h, read-out: Plant response rating, Kochia; for pest or weed control at 125 g/ha: 125 g ai/ha; for pest or weed control at 500 g/ha: 500 g ai/ha
Procedure, shortened: as §1

[12] = system: oat, wild; assay: Test A preemergence; type: in vivo, Avena fatua; conditions: Avena fatua, pre-emergence, 240 h, read-out: Plant response rating, Oat, Wild; for pest or weed control at 125 g/ha: 125 g ai/ha; for pest or weed control at 500 g/ha: 500 g ai/ha
Procedure, shortened: as §1

[13] = system: rice; assay: Test B flooded paddy test; type: in vivo, Oryza sativa; conditions: Oryza sativa, 312 h; 250 g ai/ha, Flood, 13 days, 0 to 100 scale (0 no effect, 100 complete control); read-out: Plant response rating, Rice
Procedure, shortened: as §2

[14] = system: ragweed; assay: Test A preemergence; type: in vivo, Ambrosia artemisiifolia; conditions: Ambrosia artemisiifolia, pre-emergence, 240 h, read-out: Plant response rating, Ragweed; for pest or weed control at 125 g/ha: 125 g ai/ha; for pest or weed control at 500 g/ha: 500 g ai/ha
Procedure, shortened: as §1

[15] = visual injury, read-out: Plant response rating, Kochia
[16] = visual injury after 10 days, 0 to 100 scale, 0 is no effect, 100 is complete control
[17] = visual injury, read-out: Plant response rating, Horseweed
[18] = 0 to 100 scale (0 no effect, 100 complete control), 10 days

CC(C)c1ncn(-c2cc3c(c(C(=O)N4C[C@H](C)Oc5c(Cl)cccc54)c2)OCC3)n1 [Compound 147]
pest or weed control at 125 g/ha ([1]; read-out: Kochia plant response rating): 60%
pest or weed control at 500 g/ha [1, 15]: 90%
plant injury at 125 g/ha ([2]; 125 g ai/ha, read-out: Soybean plant response rating): 100%
plant injury at 500 g/ha [2]: 100%
pest or weed control at 125 g/ha ([3]; 0 to 100 scale): 90%
pest or weed control at 500 g/ha [3, 16]: 100%
pest or weed control at 125 g/ha ([4]; read-out: Horseweed plant response rating): 0%
pest or weed control at 500 g/ha [4, 17]: 0%
pest or weed control at 125 g/ha ([5]; 0 to 100 scale): 90%
pest or weed control at 500 g/ha [5, 16]: 100%
pest or weed control at 250 g/ha [6]: 0%
plant injury at 125 g/ha ([7]; 125 g ai/ha, read-out: Corn plant response rating): 10%
Corn plant response rating (crop injury, 0 = no effect, 100 = complete kill) at 500 g/ha ([7]; visual injury): 90%
Corn plant response rating (crop injury, 0 = no effect, 100 = complete kill) at 125 g/ha ([8]; 0 to 100 scale): 0%
Corn plant response rating (crop injury, 0 = no effect, 100 = complete kill) at 500 g/ha [8, 16]: 10%
plant injury at 125 g/ha ([9]; 0 to 100 scale): 20%
plant injury at 500 g/ha [9, 16]: 50%
pest or weed control at 250 g/ha [10]: 0%
pest or weed control at 125 g/ha ([11]; 0 to 100 scale): 70%
pest or weed control at 500 g/ha [11, 16]: 90%
pest or weed control at 125 g/ha ([12]; 0 to 100 scale): 20%
pest or weed control at 500 g/ha [12, 16]: 90%
plant injury at 250 g/ha [13]: 0%
pest or weed control at 125 g/ha ([14]; 0 to 100 scale): 0%
pest or weed control at 500 g/ha [14, 16]: 0%

Cc1ncn(-c2ccc(C)c(C(=O)N3C[C@H](C)Oc4c(Cl)cccc43)c2)n1 (single isomer, unassigned) [Compound 74]
pest or weed control at 125 g/ha [1, 15]: 70%
pest or weed control at 500 g/ha [1, 15]: 90%
plant injury at 500 g/ha [2]: 100%
pest or weed control at 125 g/ha [3, 16]: 90%
pest or weed control at 500 g/ha [3, 18]: 100%
pest or weed control at 125 g/ha [4, 17]: 0%
pest or weed control at 500 g/ha [4, 17]: 0%
pest or weed control at 125 g/ha [5, 16]: 100%
pest or weed control at 500 g/ha [5, 18]: 100%
pest or weed control at 250 g/ha [6]: 10%
Corn plant response rating (crop injury, 0 = no effect, 100 = complete kill) at 125 g/ha ([7]; 125 g ai/ha, visual injury): 60%
Corn plant response rating (crop injury, 0 = no effect, 100 = complete kill) at 500 g/ha ([7]; visual injury): 90%
Corn plant response rating (crop injury, 0 = no effect, 100 = complete kill) at 125 g/ha [8, 16]: 40%
Corn plant response rating (crop injury, 0 = no effect, 100 = complete kill) at 500 g/ha [8, 18]: 90%
plant injury at 125 g/ha [9, 16]: 20%
plant injury at 500 g/ha [9, 18]: 90%
pest or weed control at 250 g/ha [10]: 60%
pest or weed control at 125 g/ha [11, 16]: 40%
pest or weed control at 500 g/ha [11, 18]: 100%
pest or weed control at 125 g/ha [12, 16]: 60%
pest or weed control at 500 g/ha [12, 18]: 90%
plant injury at 250 g/ha [13]: 20%
pest or weed control at 125 g/ha [14, 16]: 0%
pest or weed control at 500 g/ha [14, 18]: 100%

— patent US20260262643A1, “HERBICIDAL BENZOXAZINES” (FMC CORPORATION, priority 2022, published 2026)
